Columns and labels:
Melanocortin receptor 4 [1] = target: T1, Melanocortin receptor 4 (Homo sapiens, UniProt P32245); test: Effective concentration at human melanocortin 4 receptor in cAMP release assay; type: functional
Melanocortin receptor 4 [2] = target: T1, Melanocortin receptor 4; test: Maximum percentage of cAMP accumulation relative to alpha-MSH at human melanocortin 4 receptor at 10 uM; type: functional
Melanocortin receptor 4 [3] = target: T1, Melanocortin receptor 4; test: Inhibition of [125I]-NDP- alpha-MSH binding to human melanocortin 4 receptor expressed in CHO cells; type: cell-based
Melanocortin receptor 4 [4] = target: T1, Melanocortin receptor 4; test: Maximum percentage of cAMP accumulation compared to alpha-MSH at human melanocortin 4 receptor at 10 uM; type: functional

T1 sequence (P32245 whole entry): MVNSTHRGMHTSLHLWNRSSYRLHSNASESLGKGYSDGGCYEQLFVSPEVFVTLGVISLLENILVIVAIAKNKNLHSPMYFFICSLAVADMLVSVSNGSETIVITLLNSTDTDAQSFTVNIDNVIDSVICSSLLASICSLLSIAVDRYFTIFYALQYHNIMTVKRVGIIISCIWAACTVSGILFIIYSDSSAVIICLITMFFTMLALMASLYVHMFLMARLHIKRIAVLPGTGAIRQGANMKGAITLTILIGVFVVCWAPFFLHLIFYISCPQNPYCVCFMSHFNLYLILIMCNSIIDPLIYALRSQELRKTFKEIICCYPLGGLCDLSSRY

EC50 (Melanocortin receptor 4 [1]) [nM] | Max (Melanocortin receptor 4 [2]) [%] | IC50 (Melanocortin receptor 4 [3]) [nM] | Max (Melanocortin receptor 4 [4]) [%] | SMILES
400 | 103 | 98 | – | COc1ccc(-n2nc(Sc3ccc(Cl)cc3)cc(CC[C@@H](C)NC(=O)[C@H]3CNC[C@@H]3c3ccccc3)c2=O)cc1
– | – | 290 | 9 | COc1ccc(-n2nc(Sc3ccc(Cl)cc3)cc(CC[C@@H](C)NC[C@@H]3CNCC[C@H]3c3ccc(F)cc3)c2=O)cc1
– | 32 | – | – | COc1ccc(N2N=C(Sc3ccc(Cl)cc3)CC(CC[C@@H](C)NC(=O)[C@@H]3CNCC[C@H]3c3ccc(F)cc3)C2=O)cc1 (stereo in doubt; 61) [listing 1 of 2 here]
1200 | – | 47 | – | COc1ccc(N2N=C(Sc3ccc(Cl)cc3)CC(CC[C@@H](C)NC(=O)C3CNC[C@@H]3c3ccc(F)cc3)C2=O)cc1 (single isomer, unassigned; 66) [listing 1 of 2 here]
120 | 81 | 45 | – | COc1ccc(-n2nc(Sc3ccc(Cl)cc3)cc(CC[C@@H](C)NC(=O)[C@H]3CCNC[C@@H]3c3ccc(C#N)cc3)c2=O)cc1
– | – | 1100 | 9 | COc1ccc(-n2nc(Sc3ccc(Cl)cc3)cc(CC[C@H](C)NC(=O)[C@H]3CNCCN3c3ccc(F)cc3)c2=O)cc1
550 | 58 | 13 | – | COc1ccc(-n2nc(Sc3ccc(Cl)cc3)cc(CC[C@@H](C)NC(=O)[C@H]3CNCC[C@@H]3c3ccccc3F)c2=O)cc1
– | 77 | – | – | COc1ccc(-n2nc(Sc3ccc(Cl)cc3)cc(CC[C@@H](C)NC(=O)[C@H]3CNCC[C@@H]3c3ccccc3)c2=O)cc1
680 | 37 | 43 | – | COc1ccc(-n2nc(Sc3ccc(Cl)cc3)cc(CC[C@@H](C)NC(=O)[C@H]3CNCC[C@@H]3c3cccc(Cl)c3)c2=O)cc1
– | 48 | – | – | COc1ccc(N2N=C(Sc3ccc(Cl)cc3)CC(CC[C@@H](C)NC(=O)C3CNC[C@H]3c3ccc(F)cc3)C2=O)cc1 (single isomer, unassigned; 69) [listing 1 of 2 here]
150 | 101 | 58 | – | COc1ccc(-n2nc(Sc3ccc(Cl)cc3)cc(CC[C@@H](C)NC(=O)[C@H]3CCNC[C@@H]3c3ccc(Cl)cc3)c2=O)cc1
– | – | 950 | 6 | COc1ccc(-n2nc(Sc3ccc(Cl)cc3)cc(CC[C@@H](C)NC(=O)[C@H]3CNCCN3c3ccc(F)cc3)c2=O)cc1
470 | 60 | 28 | – | COc1ccc(-n2nc(Sc3ccc(Cl)cc3)cc(CC[C@@H](C)NC[C@H]3CNCC[C@@H]3c3ccc(F)cc3)c2=O)cc1
1100 | – | 4.7 | 47 | COc1ccc(-n2nc(Sc3ccc(Cl)cc3)cc(CC[C@@H](C)NC(=O)[C@H]3CNCC[C@@H]3c3ccc(C)cc3)c2=O)cc1
200 | 81 | 60 | – | COc1ccc(-n2nc(Sc3ccc(Cl)cc3)cc(CC[C@@H](C)NC(=O)[C@H]3CNC[C@@H]3c3ccc(F)cc3F)c2=O)cc1
550 | 75 | 100 | – | COc1ccc(-n2nc(Sc3ccc(Cl)cc3)cc(CC[C@@H](C)NC(=O)[C@H]3CCNC[C@@H]3c3ccccc3F)c2=O)cc1
– | – | 1000 | 38 | COc1ccc(-n2nc(Sc3ccc(Cl)cc3)cc(CC[C@H](C)NC(=O)[C@@H]3CNCCN3c3ccc(F)cc3)c2=O)cc1
– | – | 490 | 29 | COc1ccc(-n2nc(Sc3ccc(Cl)cc3)cc(CC[C@@H](C)NC(=O)[C@H]3CNCC[C@@H]3c3cccc(F)c3)c2=O)cc1
390 | – | 26 | – | COc1ccc(N2N=C(Sc3ccc(Cl)cc3)CC(CC[C@@H](C)NC(=O)[C@H]3CNCC[C@@H]3c3ccc(F)cc3)C2=O)cc1 (stereo in doubt; 25) [listing 1 of 2 here]
410 | 94 | 93 | – | COc1ccc(-n2nc(Sc3ccc(Cl)cc3)cc(CC[C@@H](C)N(C)C(=O)C3CNCCC3c3ccc(F)cc3)c2=O)cc1 (some centres undefined)
4000 | – | 690 | – | COc1ccc(N2N=C(Sc3ccc(Cl)cc3)CC(CC[C@@H](C)NC(=O)[C@@H]3CNCC[C@H]3c3ccc(F)cc3)C2=O)cc1 (stereo in doubt; 61) [listing 2 of 2 here]
– | 33 | – | – | COc1ccc(N2N=C(Sc3ccc(Cl)cc3)CC(CC[C@@H](C)NC(=O)[C@@H]3CCNC[C@H]3c3ccc(F)cc3)C2=O)cc1 (stereo in doubt; 65) [listing 1 of 2 here]
– | – | 3.2 | 2 | COc1ccc(-n2nc(Sc3ccc(Cl)cc3)cc(CC[C@@H](C)NC(=O)[C@H]3CNCC[C@@H]3c3ccc(Cl)cc3Cl)c2=O)cc1
230 | 70 | 45 | – | COc1ccc(-n2nc(Sc3ccc(Cl)cc3)cc(CC[C@@H](C)NC(=O)[C@H]3CNC[C@@H]3c3ccc(Cl)cc3)c2=O)cc1
740 | – | 430 | – | COc1ccc(N2N=C(Sc3ccc(Cl)cc3)CC(CC[C@@H](C)NC(=O)C3CNC[C@H]3c3ccc(F)cc3)C2=O)cc1 (single isomer, unassigned; 69) [listing 2 of 2 here]
– | – | 17 | 12 | COc1ccc(-n2nc(Sc3ccc(Cl)cc3)cc(CC[C@@H](C)NC(=O)[C@H]3CNCC[C@@H]3c3ccc4ccccc4c3)c2=O)cc1

EC50 (Melanocortin receptor 4 [1]) [nM] | Max (Melanocortin receptor 4 [2]) [%] | IC50 (Melanocortin receptor 4 [3]) [nM] | Max (Melanocortin receptor 4 [4]) [%] | SMILES
1100 | 75 | 28 | – | COc1ccc(-n2nc(Sc3ccc(Cl)cc3)cc(CC[C@@H](C)NC(=O)[C@@H]3CNCCN3c3ccc(F)cc3)c2=O)cc1
– | 72 | – | – | COc1ccc(N2N=C(Sc3ccc(Cl)cc3)CC(CC[C@@H](C)NC(=O)[C@H]3CNCC[C@@H]3c3ccc(F)cc3)C2=O)cc1 (stereo in doubt; 25) [listing 2 of 2 here]
210 | 39 | 2.4 | – | COc1ccc(-n2nc(Sc3ccc(Cl)cc3)cc(CC[C@@H](C)NC(=O)[C@H]3CNCC[C@@H]3c3ccc(Cl)cc3)c2=O)cc1
710 | 82 | 160 | – | COc1ccc(-n2nc(Sc3ccc(Cl)cc3)cc(CC[C@@H](C)NC(=O)[C@H]3CNC[C@@H]3c3ccccc3F)c2=O)cc1
750 | 67 | 28 | – | COc1ccc(-n2nc(Sc3ccc(Cl)cc3)cc(CC[C@@H](C)NC(=O)[C@H]3CNC[C@@H]3c3ccc(C)cc3)c2=O)cc1
320 | 59 | 4.7 | – | COc1ccc(-n2nc(Sc3ccc(Cl)cc3)cc(CC[C@@H](C)NC(=O)[C@H]3CN(C)CC[C@@H]3c3ccc(F)cc3)c2=O)cc1
– | 85 | – | – | COc1ccc(-n2nc(Sc3ccc(Cl)cc3)cc(CC[C@@H](C)NC(=O)[C@H]3CCNC[C@@H]3c3ccccc3)c2=O)cc1
1400 | – | 280 | – | COc1ccc(N2N=C(Sc3ccc(Cl)cc3)CC(CC[C@@H](C)NC(=O)[C@@H]3CCNC[C@H]3c3ccc(F)cc3)C2=O)cc1 (stereo in doubt; 65) [listing 2 of 2 here]
> 5000 | – | 3.8 | 24 | COc1ccc(-n2nc(Sc3ccc(Cl)cc3)cc(CC[C@@H](C)NC(=O)[C@H]3CNCC[C@@H]3c3ccc(C(F)(F)F)cc3)c2=O)cc1
– | 100 | – | – | COc1ccc(N2N=C(Sc3ccc(Cl)cc3)CC(CC[C@@H](C)NC(=O)[C@H]3CCNC[C@@H]3c3ccc(F)cc3)C2=O)cc1 (stereo in doubt; 62) [listing 1 of 2 here]
– | – | – | 20 | COc1ccc(N2N=C(Sc3ccc(Cl)cc3)CC(CC[C@@H](C)NC(=O)[C@@H]3CNCC[C@H]3c3ccc(F)cc3)C2=O)cc1 (stereo in doubt; 60) [listing 1 of 2 here]
4000 | – | 780 | – | COc1ccc(N2N=C(Sc3ccc(Cl)cc3)CC(CC[C@@H](C)NC(=O)C3CNC[C@H]3c3ccc(F)cc3)C2=O)cc1 (single isomer, unassigned; 68) [listing 1 of 2 here]
480 | – | 540 | – | COc1ccc(N2N=C(Sc3ccc(Cl)cc3)CC(CC[C@@H](C)NC(=O)[C@H]3CCNC[C@@H]3c3ccc(F)cc3)C2=O)cc1 (stereo in doubt; 62) [listing 2 of 2 here]
2000 | – | 1300 | – | COc1ccc(N2N=C(Sc3ccc(Cl)cc3)CC(CC[C@@H](C)NC(=O)[C@@H]3CCNC[C@H]3c3ccc(F)cc3)C2=O)cc1 (stereo in doubt; 64) [listing 1 of 2 here]
630 | – | 390 | 62 | COc1ccc(-n2nc(Sc3ccc(Cl)cc3)cc(CC[C@@H](C)NC(=O)[C@H]3CCNC[C@@H]3Cc3ccc(F)cc3)c2=O)cc1
430 | 67 | 19 | – | COc1ccc([C@H]2CNC[C@@H]2C(=O)N[C@H](C)CCc2cc(Sc3ccc(Cl)cc3)nn(-c3ccc(OC)cc3)c2=O)cc1
– | – | 560 | – | COc1ccc(N2N=C(Sc3ccc(Cl)cc3)CC(CC[C@@H](C)NC(=O)[C@@H]3CNCC[C@H]3c3ccc(F)cc3)C2=O)cc1 (stereo in doubt; 60) [listing 2 of 2 here]
– | 90 | – | – | COc1ccc(N2N=C(Sc3ccc(Cl)cc3)CC(CC[C@@H](C)NC(=O)C3CNC[C@@H]3c3ccc(F)cc3)C2=O)cc1 (single isomer, unassigned; 66) [listing 2 of 2 here]
710 | 75 | 200 | – | COc1ccc(-n2nc(Sc3ccc(Cl)cc3)cc(CC[C@@H](C)NC(=O)[C@H]3CCNC[C@@H]3c3ccc(C(F)(F)F)cc3)c2=O)cc1
2400 | 30 | 36 | – | COc1ccc(-n2nc(Sc3ccc(Cl)cc3)cc(CC[C@@H](C)NC(=O)[C@H]3CCNC[C@@H]3c3ccc(Cl)cc3Cl)c2=O)cc1
– | 26 | – | – | COc1ccc(N2N=C(Sc3ccc(Cl)cc3)CC(CC[C@@H](C)NC(=O)C3CNC[C@H]3c3ccc(F)cc3)C2=O)cc1 (single isomer, unassigned; 68) [listing 2 of 2 here]
– | – | 750 | 36 | COc1ccc(-n2nc(Sc3ccc(Cl)cc3)cc(CC[C@@H](C)NC(=O)[C@H]3CCNC[C@@H]3Cc3ccccc3)c2=O)cc1
490 | – | 130 | 82 | COc1ccc(-n2nc(Sc3ccc(Cl)cc3)cc(CC[C@@H](C)NC(=O)[C@H]3CNCC[C@@H]3c3ccsc3)c2=O)cc1
– | – | 100 | 40 | COc1ccc(-n2nc(Sc3ccc(Cl)cc3)cc(CC[C@@H](C)NC(=O)[C@H]3CNCC[C@@H]3c3cccc(C(F)(F)F)c3)c2=O)cc1
– | 16 | – | – | COc1ccc(N2N=C(Sc3ccc(Cl)cc3)CC(CC[C@@H](C)NC(=O)[C@@H]3CCNC[C@H]3c3ccc(F)cc3)C2=O)cc1 (stereo in doubt; 64) [listing 2 of 2 here]
– | – | 89 | 22 | COc1ccc(-n2nc(Sc3ccc(Cl)cc3)cc(CC[C@@H](C)NC(=O)[C@H]3CNCC[C@@H]3c3cccc4ccccc34)c2=O)cc1

Source: ChEMBL document CHEMBL1142811, “Design and syntheses of melanocortin subtype-4 receptor agonists. Part 2: discovery of the dihydropyridazinone motif” (Bioorg Med Chem Lett, 2005)
